A short description of data set [1]: logP determination by HPLC (EEC Directive 79/831 Annex V. A8). It counts as physicochemical. Particulars: acetonitrile/0.1% aqueous phosphoric acid, gradient method, acetonitrile/0.1% strength aqueous phosphoric acid. As for the experimental part: The logP values were determined in accordance with EEC Directive 79/831 Annex V. A8 by HPLC (gradient method, acetonitrile/0.1% strength aqueous phosphoric acid)

The next data set relates to Pyricularia oryzae. The data set is classed as in vivo. The following applies: rice, protective, 750 g/ha, 4 days after inoculation; 0% = control, 100% = no infestation.
Another data set relates to Phytophthora infestans. The data set is classed as in vivo. The following applies: tomato, protective, 100 g/ha, 3 days after inoculation; 0% = control, 100% = no infestation.
The subject of a further data set is Plasmopara viticola. The data set can be described thus: Plasmopara test (vine)/protective. It counts as in vivo. Particulars: protective, 100 g/ha, 6 days after inoculation, 0% = control, 100% = no infestation. Here is the method: Plasmopara test (vine)/protective
Solvent: 47 parts by weight of acetone
Emulsifier: 3 parts by weight of alkylaryl polyglycol ether
(§1) To prepare an appropriate formulation of the active compound, 1 part by weight of active compound is mixed with the stated amounts of solvent and emulsifier, and the concentrate is diluted with water to the desired concentration.
To test for protective activity, young plants are sprayed with the formulation of the active compound in the stated application amount. After the spray coating has dried on, the plants are inoculated with an aqueous spore suspension of Plasmopara viticola and then remain in an incubation cabin at about 20° C. and 100% relative atmospheric humidity for 1 day. The plants are then placed in a greenhouse at about 21° C. and about 90% relative atmospheric humidity for 5 days. The plants are then moistened and placed in an incubation cabin for 1 day.
Evaluation is carried out 6 days after the inoculation. In this evaluation, 0% means a degree of action which corresponds to that of the control, while a degree of action of 100% means that no infestation is observed.

In data set [2] the test system is Leptosphaeria nodorum. The data set can be described thus: Leptosphaeria nodorum test (wheat)/curative. Particulars: curative, 250 g/ha, 10 days after inoculation, 0% = control, 100% = no infestation. It counts as in vivo. Here is the method: Leptosphaeria nodorum test (wheat)/curative
Solvent: 10 parts by weight of N-methyl-pyrrolidone
(§2) Emulsifier: 0.6 part by weight of alkylaryl polyglycol ether
as §1
To test for curative activity, young plants are sprayed with a conidia suspension of Leptosphaeria nodorum. The plants remain in an incubation cabin at 20° C. and 100% relative atmospheric humidity for 48 hours and are then sprayed with the formulation of the active compound in the stated application amount.
The plants are placed in a greenhouse at a temperature of about 15° C. and a relative atmospheric humidity of about 80%.
(§3) Evaluation is carried out 10 days after the inoculation. In this evaluation, 0% means a degree of action which corresponds to that of the control, while a degree of action of 100% means that no infestation is observed.

The subject of data set [3] is Leptosphaeria nodorum. The data set is described as follows: Leptosphaeria nodorum test (wheat)/protective. The data set is classed as in vivo. Particulars: protective, 250 g/ha, 10 days after inoculation, 0% = control, 100% = no infestation. Here is the method:
Leptosphaeria nodorum test (wheat)/protective
(§4) Solvent: 25 parts by weight of N,N-dimethylacetamide
as §2
To test for appropriate formulation of the active compound, 1 part by weight of active compound is mixed with the stated amounts of solvent and emulsifier, and the concentrate is diluted with water to the desired concentration.
To test for protective activity, young plants are sprayed with the formulation of the active compound in the stated application amount. After the spray coating has dried on, the plants are sprayed with a spore suspension of Leptosphaeria nodorum. The plants remain in an incubation cabin at 20° C. and 100% relative atmospheric humidity for 48 hours.
The plants are placed in a greenhouse at a temperature of about 15° C. and a relative atmospheric humidity of 80%.
as §3

The next data set has as its system Puccinia. The data set can be described thus: Puccinia test (wheat)/protective. The data set is classed as in vivo. Particulars: protective, 250 g/ha, 10 days after inoculation, 0% = control, 100% = no infestation. Here is the method:
Puccinia test (wheat)/protective
as §4, §2, §1
To test for protective activity, young plants are sprayed with the formulation of the active compound in the stated application amount. After the spray coating has dried on, the plants are sprayed with the conidia suspension of Puccinia. The plants remain in an incubation cabin at 20° C. and 100% relative atmospheric humidity for 48 hours.
The plants are then placed in a greenhouse at a temperature of about 20° C. and a relative atmospheric humidity of 80% in order to promote the development of rust pustules.
as §3

A further data set concerns Puccinia recondite. The data set can be described thus: Puccinia test (wheat)/curative. Particulars: curative, 250 g/ha, 10 days after inoculation, 0% = control, 100% = no infestation. It counts as in vivo. As for the experimental part: Puccinia test (wheat)/curative
Solvent: 10 parts by weight of N,N-dimethylacetamide
as §2, §1
To test for curative activity, young plants are sprayed with a conidia suspension of Puccinia recondite The plants remain in an incubation cabin at 20° C. and 100% relative atmospheric humidity for 48 hours. The plants are then sprayed with the active compound formulation in the stated application amount.
The plants are placed in a greenhouse at a temperature of about 20° C. and a relative atmospheric humidity of about 80% in order to promote the development of rust pustules.
as §3

The chromatographic logP is a lipophilicity value derived from retention on a column. Low readings indicate lower lipophilicity, high ones higher lipophilicity. In the case of `CON=C(C1=NOCCO1)c1ccccc1CSC(=Nc1ccc(OC)cc1)C1CC1` [Example 2], in data set [1], the chromatographic logP came to 3.16. Besides, the degree of action in the data set with Pyricularia oryzae was at least 70%.
With `CON=C(C1=NOCCO1)c1ccccc1CSC(=Nc1ccc(OC)nc1)C1CC1` [Example 1], the chromatographic logP in data set [1] was 3.04. The degree of action in the data set with Phytophthora infestans was at least 90%; in the data set with Plasmopara viticola, at least 90%; in the data set with Pyricularia oryzae, at least 70%; in the data set with Leptosphaeria nodorum [2], at least 95%; in the data set on Leptosphaeria nodorum [3], at least 90%; with Puccinia, at least 90%. Moreover, in the data set with Puccinia recondite, the degree of action is at least 100%.
In data set [1], `CON=C(C1=NOCCO1)c1ccccc1CSC(=Nc1ccccc1C(F)(F)F)C1CC1` [Example 3] returned a chromatographic logP of 4.16.
